Measurements from ChEMBL document CHEMBL5154804, “Species-Selective Targeting of Fungal Hsp90: Design, Synthesis, and Evaluation of Novel 4,5-Diarylisoxazole Derivatives for the Combination Treatment of Azole-Resistant Candidiasis” (J Med Chem, 2022).
Converted amounts (≈) assume the structure as drawn. The source made the active and inactive calls. No cut-off for these calls is given here.

What was measured:
Candida albicans [1] = experiment: Synergistic antifungal activity against fluconazole-resistant Candida albicans 901 assessed as inhibition of fungal growth in presence of fluconazole by checker board microdilution assay; type: functional
Candida albicans [2] = experiment: Synergistic antifungal activity against fluconazole-resistant Candida albicans 904 assessed as inhibition of fungal growth in presence of fluconazole by checker board microdilution assay; type: functional
Candida albicans [3] = experiment: Synergistic antifungal activity against fluconazole-resistant Candida albicans 632 assessed as inhibition of fungal growth in presence of fluconazole by checker board microdilution assay; type: functional
Candida albicans [4] = experiment: Synergistic antifungal activity against fluconazole-resistant Candida albicans 100 assessed as inhibition of fungal growth in presence of fluconazole by checker board microdilution assay; type: functional
Candida albicans [5] = experiment: Synergistic antifungal activity against fluconazole-resistant Candida albicans 103 assessed as inhibition of fungal growth in presence of fluconazole by checker board microdilution assay; type: functional
Candida albicans [6] = experiment: Synergistic antifungal activity against fluconazole-resistant Candida albicans 311 assessed as inhibition of fungal growth in presence of fluconazole by checker board microdilution assay; type: functional
Candida albicans [7] = experiment: Antifungal activity against fluconazole-resistant Candida albicans 901 assessed as inhibition of fungal growth by checker board microdilution assay; type: functional
Candida albicans [8] = experiment: Antifungal activity against fluconazole-resistant Candida albicans 904 assessed as inhibition of fungal growth by checker board microdilution assay; type: functional
Candida albicans [9] = experiment: Antifungal activity against fluconazole-resistant Candida albicans 632 assessed as inhibition of fungal growth by checker board microdilution assay; type: functional
Candida albicans [10] = experiment: Antifungal activity against fluconazole-resistant Candida albicans 100 assessed as inhibition of fungal growth by checker board microdilution assay; type: functional
Candida albicans [11] = experiment: Antifungal activity against fluconazole-resistant Candida albicans 103 assessed as inhibition of fungal growth by checker board microdilution assay; type: functional
Candida albicans [12] = experiment: Antifungal activity against fluconazole-resistant Candida albicans 311 assessed as inhibition of fungal growth by checker board microdilution assay; type: functional
Candida albicans [13] = experiment: Antibiofilm activity against Candida albicans 904 assessed as inhibition of […] metabolism within the biofilm after 24 hrs by XTT reduction assay; type: functional
Candida albicans [14] = experiment: Antibiofilm activity against Candida albicans 904 assessed as inhibition of […] metabolism within the biofilm after 48 hrs by XTT reduction assay; type: functional
Candida albicans [15] = experiment: Fungicidal activity against Candida albicans 904 assessed as colony forming at 4 times MIC incubated for 48 hrs by time-kill curve assay; type: functional
Candida albicans [16] = experiment: Reversal of fluconazole mediated azole resistant Candida albicans 904 assessed as upregulation of CDR1 expression at 32 ug/ml by RT-PCR; type: functional, organism-based; settings: dose 32.0 µg/ml
Candida albicans [17] = experiment: Reversal of fluconazole mediated azole resistant Candida albicans 904 assessed as upregulation of CDR2 expression at 32 ug/ml by RT-PCR; type: functional, organism-based; settings: dose 32.0 µg/ml

OC(Cn1cncn1)(Cn1cncn1)c1ccc(F)cc1F [FLUCONAZOLE] gave an MIC80 (Candida albicans [1]) of over 64 µg/mL, an MIC80 (Candida albicans [2]) of over 64 µg/mL and an MIC80 (Candida albicans [3]) of over 64 µg/mL. The MIC80 (Candida albicans [4]) was over 64 µg/mL, the MIC80 (Candida albicans [5]) was over 64 µg/mL and the MIC80 (Candida albicans [6]) was over 64 µg/mL. It also gave an MIC80 (Candida albicans [7]) of over 64 µg/mL, an MIC80 (Candida albicans [8]) of over 64 µg/mL and an MIC80 (Candida albicans [9]) of over 64 µg/mL. The MIC80 (Candida albicans [10]) was over 64 µg/mL, the MIC80 (Candida albicans [11]) was 64 µg/mL and the MIC80 (Candida albicans [12]) was 64 µg/mL. The MIC50 (Candida albicans [13]) was 32 µg/mL (≈ 104 µM), the MIC50 (Candida albicans [14]) was over 64 µg/mL and the MFC (Candida albicans [15]) was over 64 µg/mL. The Activity (Candida albicans [16]) was “Active” and the Activity (Candida albicans [17]) was “Active”.
